Data from patent US8129137B2, “Two-photon probe for real-time monitoring of intracellular free zinc ions, method for preparing the probe and method for real-time monitoring of intracellular free zinc ions using the probe” (Korea University Industrial & Academic Collaboration …, priority 2008, dated 2012).
In brackets after ≈: the same amount, converted by molar mass.

Experiments:
[1] = Fluorescence quantum yield (Coumarin 307 as reference); format: physicochemical
Procedure: The absorption spectra of the two-photon probes were recorded on a Hewlett-Packard 8453 diode array spectrophotometer, and the fluorescence spectra of the two-photon probes were obtained with an Amico-Bowman series 2 luminescence spectrometer with a 1 cm standard quartz cell. The fluorescence quantum yields of the two-photon probes were determined by using Coumarin 307 as the reference by the literature method (J. N. Demas, G. A. Crosby, J. Phys. Chem. 1971, 75, 991-1024.). FIGS. 2a and 2b are one-photon absorption and emission spectra of the two-photon probe AZn1, respectively, and FIGS. 2c and 2d are one-photon absorption and emission spectra of the two-photon probe AZn2, respectively.

[2] = Two-photon cross section and action spectra; format: physicochemical; conditions: MOPS buffer pH 7.2, presence of Zn2+; 780 nm
Procedure: The two-photon cross section (δ) was determined by using femto second (fs) fluorescence measurement technique.
The intensities of the two-photon induced fluorescence spectra of the reference and the sample probe were measured, and the two-photon cross section of the sample probe was calculated according to Equation 3:
[formula] wherein the subscripts s and r represent sample and reference molecules, respectively, δ represents the two-photon cross section, S represents the strength of signals collected by a CCD detector, φ represents the fluorescence quantum efficiency, φrepresents the total fluorescence collection efficiency of an experimental system, c represents the number density of the molecules within each of the solutions, and δr represents the two-photon cross section of reference molecules.
Referring to FIG. 9, the two-photon action spectra of the Zn^2+ complexes with AZn1 and AZn2 in the buffer solutions indicated a φδ value of ˜90 GM at 780 nm, 4˜24-fold larger than those of TSQ and FluZin-3.

[3] = Fluorescence enhancement with varying Zn2+ concentrations; conditions: for FEF^OP, fluorescence enhancement factor by one-photon process / FEF^TP, fluorescence enhancement factor by two-photon process: (F−Fmin)/Fmin, MOPS buffer pH 7.2, presence of Zn2+
Procedure: The one-photon absorption and emission spectra and two-photon emission spectra of the two-photon probes AZn2 and AZn1 were measured with varying Zn^2+concentrations, and the results are shown in FIGS. 3a through 3f.
As can be known from FIGS. 3a through 3f, when small increments of Zn^2+were added to AZn1 and AZn2 in MOPS buffer solution (30 mM, pH 7.2, /=0.10), the one- and two-photon excitation fluorescence (emission) intensity increased gradually without affecting the absorption spectra, presumably due to the blocking of the photo-induced electron transfer (PET) process by the complexation with Zn^2+.
The fluorescence enhancement factors [FEF=(F−Fmin)/Fmin] of the two-photon probe AZn2 measured for one- and two-photon processes were 2.5-fold larger than those of the two-photon probe AZn1 as a result of the lower fluorescence quantum yield (Φ) in the absence, and higher Φ in the presence, of excess Zn^2+. These analytical results can be more easily understood from the data in Table 2.

[4] = Measurement of water solubility; format: physicochemical; conditions: kinetic from dmso stock, H2O, 0.2% DMSO, maximum concentration in the linear region of fluorescence intensity vs probe concentration
Procedure: A small amount of each of the two-photon probes (AZn2 and AZn1) prepared in Examples 1 and 2 was dissolved in DMSO to prepare a stock solution ([…]). The solution was diluted to 6.0×10^−3˜6.0×10^−5 M and added to a cuvette containing 3.0 mL of H2O by using a micro syringe. In all cases, the concentration of DMSO in H2O was maintained to be 0.2%.
FIGS. 1a through 1d are plots showing variations in the fluorescence intensity of the two-photon probes at different concentrations.
The plots of FIGS. 1b and 1d show variations in the fluorescence intensity of AZn2 and AZn1 as a function of the probe concentration, respectively, and have a profile in which the fluorescence intensity increases linearly at low concentrations. […] The maximum concentration in the linear region was taken as the water solubility. The water solubilities of the two probes were all 3.0 μM.

[5] = 20 mM MOPS, 100 mM KCl, 10 mM EGTA, pH 7.2, absence of Zn2+, ±10%
[6] = 20 mM MOPS, 100 mM KCl, 10 mM EGTA, pH 7.2, presence of Zn2+, ±10%

Row | Structure (SMILES) | fluorescence quantum yield φ [1, 5] | fluorescence quantum yield φ [1, 6] | fluorescence quantum yield φ ([1]; 1,4-dioxane, ±15%) | fluorescence quantum yield φ ([1]; DMF, ±15%) | fluorescence quantum yield φ ([1]; Ethanol, ±15%) | fluorescence quantum yield φ ([1]; H2O, ±15%) | δ, peak two-photon cross section [2] [GM] | φδ, two-photon action cross section [2] [GM] | FEF^OP, fluorescence enhancement factor by one-photon process [3] | FEF^TP, fluorescence enhancement factor by two-photon process [3] | solubility [4] [µM] | FEF (one- and two-photon) relative to AZn1 ([3]; larger than those of AZn1) [fold]
1 | Nc1ccc(NCCN(Cc2ccccn2)Cc2ccccn2)cc1 [AZn1] | 0.022 | 0.47 | 0.19 | 0.055 | 0.057 | 0.022 | 210 | 86 | 21 | 24 | 3 (≈ 1 µg/mL) | 
2 | COc1cc(NC(=O)CN(C)c2ccc3cc(C(C)=O)ccc3c2)ccc1NCCN(Cc1ccccn1)Cc1ccccn1 [AZn2] | 0.012 | 0.65 | 0.094 | 0.037 | 0.039 | 0.012 | 140 | 95 | 54 | 52 | 3 (≈ 1.81 µg/mL) | 2.5
